Where two headings read alike, the source gives them in different places.
Assays:
OachGOBP1 [1] = assay: Fluorescence competitive binding assay (1-NPN displacement), OachGOBP1; parameters: species or system Orthaga achatina; conditions: 2 µM protein and 2 µM 1-NPN in 50 mM Tris HCl; for Ki: Ki = [IC50]/(1 + [1-NPN]/K1-NPN), read-out: GOBP1 Ki; for IC50: competitive ligand replacing 50% 1-NPN, read-out: GOBP1 IC50
Protocol: (§1) A fluorescence competition binding assay was used to test the binding properties of GOBPs to 22 plant volatiles of camphor [22, 23] and 4 sex pheromones of O. achatina. The fluorescence competitive binding assay was conducted on an F-7000 fluorescence spectrophotometer with a 1 cm light path quartz cuvette and 10 nm slits for excitation and emission. The excitation wavelength was 337 nm, and the emission spectrum was recorded between 380 and 460 nm. Firstly, the binding characteristics of 1-NPN to protein were detected. We dissolved 2 µM protein in 50 mM Tris HCl (pH = 7.4), then gradually added 1 mM 1-NPN to make its concentration reach 2, 4, 6, 8, 10, 12, 14, 16 and 20 µM, recorded the fluorescence value, and then calculated the binding constant between 1-NPN and the recombinant protein using the Scatchard equation.
When studying the binding constant between odorant and recombinant protein, 1-NPN was used as a fluorescence reporter. We dissolved 2 µM protein and 2 µM 1-NPN in 50 mM Tris HCl, and then gradually added the ligand. […] In order to determine the binding concentration of protein, the free radical concentration was plotted with the fluorescence intensity of the maximum emission spectrum. It was assumed that the protein activity was 100% and the binding ratio of protein to ligand was 1:1 in the saturated state. The curve was linearized by the Scatchard method. […] The calculation formula was: Ki = [IC50]/(1 + [1-NPN]/K1-NPN), where [1-NPN] is the concentration of unbound 1-NPN and K1-NPN is the dissociation concentration of protein/1-NPN complex.

OachGOBP2 [2] = molecular target: T1, OachGOBP2 (Orthaga achatina, UniProt H6UEU3); assay: Fluorescence competitive binding assay (1-NPN displacement), OachGOBP2; conditions: for Ki: Ki = [IC50]/(1 + [1-NPN]/K1-NPN), read-out: GOBP2 Ki; for binding to GOBP2 (in words): fluorescence competitive binding
Protocol: as §1
When studying the binding constant between odorant and recombinant protein, 1-NPN was used as a fluorescence reporter. We dissolved 2 µM protein and 2 µM 1-NPN in 50 mM Tris HCl, and then gradually added the ligand. All the ligands were diluted in methanol (AR, content greater than 99.5%). The concentration of pheromone component was 0.5–10 µM and the concentration of plant volatile was 1–32 µM. In order to determine the binding concentration of protein, the free radical concentration was plotted with the fluorescence intensity of the maximum emission spectrum. It was assumed that the protein activity was 100% and the binding ratio of protein to ligand was 1:1 in the saturated state. The curve was linearized by the Scatchard method. Then, the concentration of competitive binding ligand was calculated according to the IC50 value (the concentration when competitive ligand can replace 50% 1-NPN). The calculation formula was: Ki = [IC50]/(1 + [1-NPN]/K1-NPN), where [1-NPN] is the concentration of unbound 1-NPN and K1-NPN is the dissociation concentration of protein/1-NPN complex.

OachGOBP1 [3] = assay: Binding of fluorescent probe 1-NPN to OachGOBP1 (Scatchard); parameters: species or system Orthaga achatina; conditions: 2 µM protein in 50 mM Tris HCl pH 7.4, Scatchard; read-out: dissociation constant (K1-NPN) to OachGOBP1
Protocol: as §1

OachGOBP2 [4] = molecular target: T1, OachGOBP2; assay: Binding of fluorescent probe 1-NPN to OachGOBP2 (Scatchard); conditions: 2 µM protein in 50 mM Tris HCl pH 7.4, Scatchard; read-out: dissociation constant (K1-NPN) to OachGOBP2
Protocol: as §1

[5] = 2 µM protein and 2 µM 1-NPN in 50 mM Tris HCl
[6] = competitive ligand replacing 50% 1-NPN, 2 µM protein and 2 µM 1-NPN in 50 mM Tris HCl, read-out: GOBP2 IC50

T1 sequence (H6UEU3 entry or part of it): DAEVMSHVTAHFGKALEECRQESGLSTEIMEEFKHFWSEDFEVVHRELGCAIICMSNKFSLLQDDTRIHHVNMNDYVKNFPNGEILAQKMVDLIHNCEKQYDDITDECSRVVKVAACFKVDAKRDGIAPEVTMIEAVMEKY

| SMILES | Ki (OachGOBP1 [1]) [µM] | IC50 (OachGOBP1 [1]) [µM] | Ki (OachGOBP2 [2]; [5]) [µM] | IC50 (OachGOBP2 [2]; [6]) [µM] | Kd (OachGOBP1 [3]) [µM] | Kd (OachGOBP2 [4]) [µM] | IC50 (OachGOBP2 [2]) [µM] | binding to GOBP2 (in words) (OachGOBP2 [2]) | binding capacity class to OachGOBP2 (sex pheromones) (OachGOBP2 [2]; class by Ki, sex pheromones) |
| --- | --- | --- | --- | --- | --- | --- | --- | --- | --- |
| CCC/C=C/C=O [E2-Hexenal] | > 30 | > 32 | > 30 | > 32 |  |  |  |  |  |
| c1ccc(Nc2cccc3ccccc23)cc1 [1-NPN] |  |  |  |  | 9.95 | 4.91 |  |  |  |
| CC/C=C\C/C=C\C/C=C\C/C=C\C/C=C\CCCCCCC [Z3, Z6, Z9,Z12,Z15–23: H] | > 30 | > 32 | > 30 | > 32 |  |  |  |  |  |
| CC12CCC(CC1)C(C)(C)O2 [Eucalyptol] | > 30 | > 32 | > 30 | > 32 |  |  |  |  |  |
| CC(=O)/C=C/C1C(C)=CCCC1(C)C (stereo not drawn) [α-Ionone] | > 30 | > 32 |  |  |  |  | > 32 |  |  |
| O=C/C=C/c1ccccc1 [Cinnamaldehyde] | > 30 | > 32 |  |  |  |  | > 32 |  |  |
| CC12CCC(CC1=O)C2(C)C (stereo not shown) [Camphor] | > 30 | > 32 | 17.5 | 20.7 |  |  |  |  |  |
| CC/C=C\CC=O [Z3-Hexenal] | > 30 | > 32 | > 30 | > 32 |  |  |  | did not bind |  |
| CC/C=C\CCO [Z3-Hexen-1-ol] | > 30 | > 32 | 18.2 | 21.4 |  |  |  |  |  |
| C=CC(C)=CCC=C(C)C [Ocimene] | > 30 | > 32 | > 30 | > 32 |  |  |  |  |  |
| CC(C)=CCC/C(C)=C/CO [Geraniol] | > 30 | > 32 |  |  |  |  | > 32 |  |  |
| C=C/C(C)=C/C/C=C(\C)CCC=C(C)C [α-Farnesene] | > 30 | > 32 | 13.4 | 15.9 |  |  |  |  |  |
| CC(C)=CCC/C(C)=C/CC/C(C)=C/CO [Farnesol] | 9.49 | 10.9 | 7.33 | 8.68 |  |  |  |  |  |
| C=C1C2CCC(C2)C1(C)C (stereo not shown) [Camphene] | > 30 | > 32 | > 30 | > 32 |  |  |  | did not bind |  |
| CC/C=C\CCOC(C)=O [Z3-Hexenyl acetate] | > 30 | > 32 | 14.3 | 16.8 |  |  |  |  |  |
| CCCC/C=C\CCCCCCCCCCO [Z11-16: OH] | 1.57 | 1.79 | 3.3 | 3.86 |  |  |  |  |  |
| CC(=O)/C=C/C1=C(C)CCCC1(C)C [β-Ionone] | > 30 | > 32 |  |  |  |  | 17.8 |  |  |
| CCCC/C=C\CCCCCCCCCCOC(C)=O [Z11-16: OAc] | > 30 | > 32 | 2.84 | 3.3 |  |  |  |  | moderate (2 μM < Ki < 5 μM indicates moderate binding affinity) |
| C=C1CCC2CC1C2(C)C (stereo not drawn) [β-Pinene] | > 30 | > 32 |  |  |  |  | > 32 |  |  |
| CCCC/C=C\CCCCCCCCCC=O [Z11-16: Ald] | > 30 | > 32 |  | > 32 |  |  |  |  |  |
| CCCCCCO [1-Hexanol] | > 30 | > 32 | > 30 | > 32 |  |  |  |  |  |
| C=CC(C)(O)CCC=C(C)C (stereo not shown) [Linalool] | > 30 | > 32 |  |  |  |  | 13.9 |  |  |
| O=CCCCC=O [Glutaraldehyde] | > 30 | > 32 |  |  |  |  | > 32 |  |  |
| C=CC(=C)CC/C=C(\C)CCC=C(C)C [β-Farnesene] | > 30 | > 32 | > 30 | > 32 |  |  |  |  |  |
| CCCCCCOC(C)=O [Hexyl acetate] | > 30 | > 32 | > 30 | > 32 |  |  |  |  |  |
| C=C(C)[C@H]1CC=C(C)CC1 [Limonene] | > 30 | > 32 | > 30 | > 32 |  |  |  |  |  |
| CC1=CC[C@H](C(C)C)C=C1 [α-Phellandrene] | > 30 | > 32 |  |  |  |  | 10.2 |  |  |

— article PMC10051560, “Identification and Functional Characterization of General Odorant Binding Proteins in Orthaga achatina” (Insects, 2023)
